Measurements: patent publication US20160244718A1, “REPROGRAMMING OF PLURIPOTENT STEM CELLS FOR IMPROVED CONTROL OF THEIR DIFFERENTIATION PATHWAYS” (ETH ZURICH, priority 2013, published 2016)

Tested on: pPSCs (cESCs d7) and PSCs (WT ESCs)
Test: Cardiogenic differentiation induced by icariin, Real-Time PCR of cardiogenic markers
Format: cell-based, mouse
Conditions: 12 days stimulation with icariin (d7 to d7+12), RNA isolated every 4 days, normalized to Gapdh; pPSCs compared with PSCs
Description: Total RNA was isolated from ˜1×10^6 cells per sample using the RNeasy Plus Mini Kit (Qiagen, Hombrechtikon, Switzerland) with RNase-free DNase treatment (Qiagen) following the manufacturer's protocol. For reverse transcription (RT) 2 μg total RNA was reverse transcribed into cDNA in a reaction volume of 20 μl using the iScript™ Advanced cDNA Synthesis Kit (Bio-Rad). Each RT reaction mix contained 4 μl 5× iScript advanced reaction mix and 1 μl iScript advanced reverse transcriptase. The 20 μl reactions were incubated at 42° C. for 30 min, at 85° C. for 5 min, and then held at 4° C. Real-Time PCR reactions were performed on the resulting cDNA using the CFX Connect™ Real-Time PCR Detection System (Bio-Rad), SsoAdvanced™ SYBR® Green Supermix (Bio-Rad) and Hard-Shell® Low-Profile Thin-Wall 96-Well Skirted PCR Plates (Bio-Rad). Briefly, following the RT step, 5 μl of the 100fold-diluted RT reaction was combined with 15 μl mastermix (2× SsoAdvanced™ SYBR® Green Supermix, forward primer, reverse primer and nuclease-free water) in a 20 μl final volume. PCR reactions were incubated at 95° C. for 3 min, followed by 39 cycles of 95° C. for 10 s and 62° C. for 30 s; and were run as duplicates of two independent experiments. […] Results were analyzed using CFX Manager™ software (Bio-Rad) and mRNA expression levels relative to Gapdh were calculated based on the AACt method. […]

COc1ccc(-c2oc3c(CC=C(C)C)c(O[C@@H]4O[C@H](CO)[C@@H](O)[C@H](O)[C@H]4O)cc(O)c3c(=O)c2O[C@@H]2O[C@@H](C)[C@H](O)[C@@H](O)[C@H]2O)cc1 [icariin]
mRNA expression of all tested cardiogenic markers: induced higher in pPSCs than in PSCs
